According to US9309242B2, “Substituted pyrido[2,3-b]pyrazines as FGFR kinase inhibitors” (priority 2011, dated 2016):
Where two headings read alike, the source gives them in different places.

Assays:
FGFR2 (h) = FGFR2 (h) (Homo sapiens, UniProt P21802); assay: FGFR2 (enzymatic assay), TR-FRET; type: biochemical; details: enzymatic assay, read-out: FGFR 2 pIC50 (converted)
Method in brief: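 At low ATP (0.4 μM), enzyme activity of human FGFR2 (150 ng/ml) toward biotinylated Flt3 substrate (500 nM) was followed with test compound present. Reactions ran in 50 mM HEPES pH 7.5, 6 mM MnCl2, 1 mM DTT, 0.1 mM Na3VO4, 0.01% Triton-X-100, 1% DMSO.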

[1] = target: T1, Ba/F3-FGFR1-transfected cells (Homo sapiens, UniProt P11362); assay: Ba/F3-FGFR1 (minus IL3) cellular proliferation assay, Alamar Blue; type: cell-based
T1 construct: BAF3-FGFR1 (MIN IL3) pIC50; other: minus IL3
Method in brief: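 Viability of transfected Ba/F3-FGFR1 cells (20000 per well, RPMI-1640 with 10% FBS and 2 mM L-glutamine) was scored by resazurin-based Alamar Blue reduction over 4 h, after 24 h treatment with compound at 37 °C under 5% CO2.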

[2] = target: T2, Ba/F3-FGFR3-transfected cells (Homo sapiens, UniProt P22607); assay: Ba/F3-FGFR3 (minus IL3) cellular proliferation assay, Alamar Blue; type: cell-based
T2 construct: BAF3-FGFR3 (MIN IL3) pIC50; other: minus IL3
Method in brief: (§1)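 With or without 10 ng/ml murine IL3, FGFR3-dependent Ba/F3 cells were treated 24 h with compound, then viability was gauged by Alamar Blue fluorescence after 4 h (ex 540/em 590 nm).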

[3] = tested on: Ba/F3-KDR-transfected cells; assay: Ba/F3-KDR (plus IL3) cellular proliferation assay, counterscreen with 10 ng/ml murine IL3; type: cell-based; details: for BAF3-KDR (PLUS IL3) pIC50: plus IL3 (10 ng/ml murine IL3, counterscreen); for IC50: read-out: BAF3-KDR (PLUS IL3) pIC50 (converted)
Method in brief: (§2)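 Proliferation read-out by Alamar Blue fluorescence (ex. 540 nm, em. 590 nm) after 4 hours, following 24 hours of compound treatment at 37° C of 20000 Ba/F3-KDR cells per well in RPMI-1640/10% FBS. Same protocol with 10 ng/ml murine IL3 serves as counterscreen.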

FGFR1 (h) = FGFR1 (h) (Homo sapiens, UniProt P11362); assay: FGFR1 (enzymatic assay), TR-FRET; type: biochemical; details: read-out: FGFR 1 pIC50 (converted)
FGFR4 (h) = FGFR4 (h) (Homo sapiens, UniProt P22455); assay: FGFR4 (enzymatic assay), TR-FRET; type: biochemical; details: FGFR 4 pIC50, enzymatic assay
[4] = target: Ba/F3-FGFR4-transfected cells (Homo sapiens, UniProt P22455); assay: Ba/F3-FGFR4 cellular proliferation assay, Alamar Blue; type: cell-based
Method in brief: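 Proliferation is measured by resazurin reduction: after 24 h compound treatment at 37 °C in RPMI-1640/10% FBS, cells get Alamar Blue for 4 h before RFU read (540/590 nm). Each well holds 20000 Ba/F3-FGFR4-transfected cells.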

FGFR3 (h) = FGFR3 (h) (Homo sapiens, UniProt P22607); assay: FGFR3 (enzymatic assay), TR-FRET; type: biochemical; details: read-out: FGFR 3 pIC50 (converted)
Source text: Time-Resolved Fluorescence Resonance Energy Transfer (TR-FRET) signal (ex340 nm.

KDR (h) = KDR (h) (Homo sapiens, UniProt P35968); assay: KDR (VEGFR2) (enzymatic assay), TR-FRET; type: biochemical; details: for IC50: read-out: VEGFR 2 (KDR) pIC50 (converted)
Method in brief: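 TR-FRET readout (ex 340, em 620/655 nm) in RFU after EDTA stop with Eu-anti-phosphotyrosine and SA-XL665 for 60 min. The preceding 120-min room-temperature kinase step used 150 ng/ml KDR (h), 3 μM ATP, 500 nM biotinylated Flt3 peptide, MnCl2-containing HEPES buffer pH 7.5, 1% DMSO.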

[5] = target: T3, Ba/F3-KDR-transfected cells (Homo sapiens, UniProt P35968); assay: Ba/F3-KDR (minus IL3) cellular proliferation assay, Alamar Blue; type: cell-based
T3 construct: BAF3-KDR (MIN IL3) pIC50; other: minus IL3
Method in brief: as §2

[6] = tested on: Ba/F3-FGFR3-transfected cells; assay: Ba/F3-FGFR3 (plus IL3) cellular proliferation assay, counterscreen with 10 ng/ml murine IL3; type: cell-based; details: for BAF3-FGFR3 (PLUS IL3) pIC50: plus IL3 (10 ng/ml murine IL3, counterscreen); for IC50: read-out: BAF3-FGFR3 (PLUS IL3) pIC50 (converted)
Method in brief: as §1

[7] = tested on: Ba/F3-FGFR1-transfected cells; assay: Ba/F3-FGFR1 (plus IL3) cellular proliferation assay, counterscreen with 10 ng/ml murine IL3; type: cell-based; details: for BAF3-FGFR1 (PLUS IL3) pIC50: plus IL3 (10 ng/ml murine IL3, counterscreen); for IC50: read-out: BAF3-FGFR1 (PLUS IL3) pIC50 (converted)
Method in brief: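 Proliferation read-out: resazurin-based Alamar Blue fluorescence (540/590 nm) after 4 h, following 24 h compound treatment of 20000 Ba/F3-FGFR1 cells per well in 10% FBS RPMI at 37° C. IL3 counterscreen used the same protocol plus 10 ng/ml murine IL3.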

[8] = average values if tested multiple times

Sequence of FGFR4 (h) (P22455 22-802): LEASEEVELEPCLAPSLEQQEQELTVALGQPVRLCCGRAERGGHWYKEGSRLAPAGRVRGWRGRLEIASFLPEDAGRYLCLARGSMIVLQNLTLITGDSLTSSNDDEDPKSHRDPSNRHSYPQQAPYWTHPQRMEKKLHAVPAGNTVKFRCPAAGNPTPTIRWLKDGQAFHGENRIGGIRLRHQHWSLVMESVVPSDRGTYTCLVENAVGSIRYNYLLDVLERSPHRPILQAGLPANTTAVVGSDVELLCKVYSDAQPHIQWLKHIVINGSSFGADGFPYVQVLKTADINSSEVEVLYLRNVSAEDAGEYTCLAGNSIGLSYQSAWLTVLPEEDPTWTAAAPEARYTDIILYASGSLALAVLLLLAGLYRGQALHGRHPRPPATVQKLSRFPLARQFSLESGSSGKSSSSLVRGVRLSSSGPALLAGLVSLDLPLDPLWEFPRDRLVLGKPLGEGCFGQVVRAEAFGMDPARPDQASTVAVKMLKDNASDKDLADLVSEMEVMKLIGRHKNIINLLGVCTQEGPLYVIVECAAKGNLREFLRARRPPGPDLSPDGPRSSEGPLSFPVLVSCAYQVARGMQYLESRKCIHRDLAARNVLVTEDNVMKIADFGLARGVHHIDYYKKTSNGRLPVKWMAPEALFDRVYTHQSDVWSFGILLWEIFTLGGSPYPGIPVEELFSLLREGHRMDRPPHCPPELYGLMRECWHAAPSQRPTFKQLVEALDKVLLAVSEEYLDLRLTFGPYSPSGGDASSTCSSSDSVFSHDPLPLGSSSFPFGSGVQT
Sequence of Ba/F3-FGFR4-transfected cells (P22455 whole entry, change not shown): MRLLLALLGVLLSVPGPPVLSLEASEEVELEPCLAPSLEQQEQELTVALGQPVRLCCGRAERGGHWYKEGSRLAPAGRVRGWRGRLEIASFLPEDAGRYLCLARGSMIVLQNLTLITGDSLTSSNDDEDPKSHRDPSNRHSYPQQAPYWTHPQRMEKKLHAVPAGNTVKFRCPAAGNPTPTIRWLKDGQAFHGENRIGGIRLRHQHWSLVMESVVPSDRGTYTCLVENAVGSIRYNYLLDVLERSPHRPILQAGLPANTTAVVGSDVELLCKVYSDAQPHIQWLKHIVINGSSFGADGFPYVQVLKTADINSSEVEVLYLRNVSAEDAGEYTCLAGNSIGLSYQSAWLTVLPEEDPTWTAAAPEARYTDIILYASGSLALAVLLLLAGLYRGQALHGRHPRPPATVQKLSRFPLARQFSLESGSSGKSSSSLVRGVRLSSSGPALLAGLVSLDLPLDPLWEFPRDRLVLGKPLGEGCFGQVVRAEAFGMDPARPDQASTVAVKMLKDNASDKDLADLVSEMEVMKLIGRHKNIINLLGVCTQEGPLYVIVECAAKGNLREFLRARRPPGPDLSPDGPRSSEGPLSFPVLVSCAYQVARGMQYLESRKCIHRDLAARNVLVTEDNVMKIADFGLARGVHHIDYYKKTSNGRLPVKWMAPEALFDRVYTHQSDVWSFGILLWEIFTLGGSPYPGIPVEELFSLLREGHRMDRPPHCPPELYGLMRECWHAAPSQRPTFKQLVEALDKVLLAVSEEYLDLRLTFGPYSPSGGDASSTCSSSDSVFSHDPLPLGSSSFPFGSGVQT
Sequence of FGFR1 (h) (P11362 22-822): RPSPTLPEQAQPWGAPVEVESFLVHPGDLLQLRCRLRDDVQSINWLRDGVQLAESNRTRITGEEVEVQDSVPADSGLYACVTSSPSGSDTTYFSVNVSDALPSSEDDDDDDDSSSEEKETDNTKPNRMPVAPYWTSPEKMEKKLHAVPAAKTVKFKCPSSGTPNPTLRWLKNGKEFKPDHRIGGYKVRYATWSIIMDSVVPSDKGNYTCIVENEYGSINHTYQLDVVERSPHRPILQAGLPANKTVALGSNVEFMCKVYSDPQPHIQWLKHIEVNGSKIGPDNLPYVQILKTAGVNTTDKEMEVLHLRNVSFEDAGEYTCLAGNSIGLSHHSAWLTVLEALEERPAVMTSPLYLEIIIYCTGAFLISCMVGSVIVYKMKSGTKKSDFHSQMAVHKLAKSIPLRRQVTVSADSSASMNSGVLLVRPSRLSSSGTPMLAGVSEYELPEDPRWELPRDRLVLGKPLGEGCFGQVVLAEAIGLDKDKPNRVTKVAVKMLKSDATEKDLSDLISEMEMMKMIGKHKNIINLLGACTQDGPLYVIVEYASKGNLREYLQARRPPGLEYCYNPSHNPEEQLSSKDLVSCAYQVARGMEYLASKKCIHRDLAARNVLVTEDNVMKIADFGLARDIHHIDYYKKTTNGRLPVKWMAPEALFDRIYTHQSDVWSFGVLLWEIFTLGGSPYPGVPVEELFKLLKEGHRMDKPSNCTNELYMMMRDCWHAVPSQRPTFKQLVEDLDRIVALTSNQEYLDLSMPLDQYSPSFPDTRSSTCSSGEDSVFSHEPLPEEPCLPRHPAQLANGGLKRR
T2 sequence (P22607 whole entry, change not shown): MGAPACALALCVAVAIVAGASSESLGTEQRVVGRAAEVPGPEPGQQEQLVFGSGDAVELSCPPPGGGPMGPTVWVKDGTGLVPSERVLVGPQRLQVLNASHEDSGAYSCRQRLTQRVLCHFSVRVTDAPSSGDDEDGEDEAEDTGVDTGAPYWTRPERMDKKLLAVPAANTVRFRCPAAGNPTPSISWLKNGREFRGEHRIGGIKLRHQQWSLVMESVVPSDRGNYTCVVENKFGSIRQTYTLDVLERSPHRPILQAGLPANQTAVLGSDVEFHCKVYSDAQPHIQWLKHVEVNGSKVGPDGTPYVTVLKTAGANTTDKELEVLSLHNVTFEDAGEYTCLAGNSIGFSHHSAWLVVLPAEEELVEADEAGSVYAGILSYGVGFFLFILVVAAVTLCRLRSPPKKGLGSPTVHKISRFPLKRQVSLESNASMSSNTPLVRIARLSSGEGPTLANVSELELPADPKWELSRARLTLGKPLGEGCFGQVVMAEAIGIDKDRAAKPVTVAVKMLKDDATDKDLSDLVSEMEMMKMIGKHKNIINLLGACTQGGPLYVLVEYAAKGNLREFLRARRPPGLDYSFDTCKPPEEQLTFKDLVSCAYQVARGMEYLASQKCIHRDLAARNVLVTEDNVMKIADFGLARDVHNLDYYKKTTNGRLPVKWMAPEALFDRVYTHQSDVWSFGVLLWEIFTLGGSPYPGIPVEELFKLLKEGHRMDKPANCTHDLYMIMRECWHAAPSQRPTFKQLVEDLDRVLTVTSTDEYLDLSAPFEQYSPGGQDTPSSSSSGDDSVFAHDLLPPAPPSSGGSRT
Sequence of KDR (h) (P35968 20-1356): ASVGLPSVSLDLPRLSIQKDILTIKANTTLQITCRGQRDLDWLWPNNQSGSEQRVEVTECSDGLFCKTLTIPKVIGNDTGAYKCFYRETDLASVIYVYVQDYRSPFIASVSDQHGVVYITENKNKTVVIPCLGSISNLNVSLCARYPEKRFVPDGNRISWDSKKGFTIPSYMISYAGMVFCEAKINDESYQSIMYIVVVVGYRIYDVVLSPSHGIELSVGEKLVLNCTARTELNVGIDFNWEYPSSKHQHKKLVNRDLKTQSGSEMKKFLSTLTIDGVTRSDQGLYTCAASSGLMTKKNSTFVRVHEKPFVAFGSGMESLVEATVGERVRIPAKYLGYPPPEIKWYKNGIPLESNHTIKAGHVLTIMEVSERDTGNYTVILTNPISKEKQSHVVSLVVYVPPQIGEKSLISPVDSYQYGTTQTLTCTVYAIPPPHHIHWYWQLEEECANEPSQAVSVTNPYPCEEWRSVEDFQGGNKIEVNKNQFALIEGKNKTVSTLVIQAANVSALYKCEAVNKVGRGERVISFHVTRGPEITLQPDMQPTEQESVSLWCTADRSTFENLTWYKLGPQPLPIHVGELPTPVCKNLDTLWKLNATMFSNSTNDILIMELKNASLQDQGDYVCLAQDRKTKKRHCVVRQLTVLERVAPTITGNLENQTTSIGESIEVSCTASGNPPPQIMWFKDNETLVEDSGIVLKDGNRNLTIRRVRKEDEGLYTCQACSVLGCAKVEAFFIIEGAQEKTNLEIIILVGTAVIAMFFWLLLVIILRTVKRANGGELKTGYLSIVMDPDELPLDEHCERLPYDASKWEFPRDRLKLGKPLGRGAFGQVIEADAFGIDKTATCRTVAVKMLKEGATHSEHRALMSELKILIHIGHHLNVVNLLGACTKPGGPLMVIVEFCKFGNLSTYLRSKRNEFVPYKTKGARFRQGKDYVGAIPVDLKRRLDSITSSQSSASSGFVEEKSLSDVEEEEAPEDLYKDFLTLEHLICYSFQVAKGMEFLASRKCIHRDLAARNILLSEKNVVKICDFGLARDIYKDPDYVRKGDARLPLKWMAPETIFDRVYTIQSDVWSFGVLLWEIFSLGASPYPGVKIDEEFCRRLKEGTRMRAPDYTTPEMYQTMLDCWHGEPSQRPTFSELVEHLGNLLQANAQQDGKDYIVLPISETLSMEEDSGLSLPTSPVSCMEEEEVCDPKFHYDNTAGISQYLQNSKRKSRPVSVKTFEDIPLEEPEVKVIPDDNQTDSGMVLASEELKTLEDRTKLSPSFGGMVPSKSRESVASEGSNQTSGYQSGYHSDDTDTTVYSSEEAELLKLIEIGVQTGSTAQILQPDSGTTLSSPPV

Row | Structure (SMILES) | IC50 (FGFR2 (h); [8]) [nM] | BAF3-FGFR1 (MIN IL3) pIC50 [1] | BAF3-FGFR3 (MIN IL3) pIC50 [2] | BAF3-KDR (PLUS IL3) pIC50 [3] | IC50 (FGFR1 (h); [8]) [nM] | IC50 (FGFR4 (h); [8]) [nM] | BAF3-FGFR4 pIC50 [4] | IC50 (FGFR3 (h); [8]) [nM] | IC50 (KDR (h); [8]) [nM] | BAF3-KDR (MIN IL3) pIC50 [5] | BAF3-FGFR3 (PLUS IL3) pIC50 [6] | BAF3-FGFR1 (PLUS IL3) pIC50 [7] | IC50 [3] [nM] | IC50 [6] [nM] | IC50 [7] [nM] | IC50 (FGFR2 (h)) [nM] | IC50 (FGFR1 (h)) [nM] | IC50 (FGFR4 (h)) [nM] | IC50 (FGFR3 (h)) [nM] | IC50 (KDR (h)) [nM] | other results
1 | COc1cc(OC)c(F)c(N(CC(O)COC(C)C)c2ccc3ncc(-c4cnn(C)c4)nc3n2)c1F (stereo not drawn) [Compound 62] | 7.76 | 8.06 | 8.10 | <5 | 4.07 | 3.31 | 7.92 | 5.5 | 32.4 | 6.21 | <5 | <5 | – | – | – | – | – | – | – | – | –
2 | CNCCn1/c(=N/c2c(F)ccc(OC)c2Cl)ccc2ncc(-c3cnn(C)c3)nc21 [Compound 70] | 23.4 | 5.75 | 6.31 | – | 39.8 | 93.3 | 5.69 | 38.9 | 537 | <5 | – | – | > 10000 | > 10000 | > 10000 | – | – | – | – | – | –
3 | COc1cc(OC)c(F)c(N(Cc2nc3ccccc3[nH]2)c2ccc3ncc(-c4cnn(C)c4)nc3n2)c1 [Compound 80] | 2.63 | 7.76 | 8.08 | – | 1.35 | 1.55 | 7.36 | 1.82 | 10.2 | 5.79 | – | – | > 10000 | > 10000 | > 10000 | – | – | – | – | – | –
4 | CNCCn1/c(=N/c2c(Cl)c(OC)cc(OC)c2Cl)ccc2ncc(-c3cnn(C)c3)nc21 [Compound 82] | 10.7 | 6.67 | ~6.61 | – | 11.7 | 182 | 5.43 | 14.1 | 490 | <5 | – | – | > 10000 | > 10000 | > 10000 | – | – | – | – | – | –
5 | COc1ccc(Cl)c(N(CC2CCC(=O)N2)c2ccc3ncc(-c4cnn(C)c4)nc3n2)c1Cl (stereo not drawn) [Compound 94] | – | 5.52 | ~5.56 | <5 | – | – | <5 | – | – | <5 | <5 | <5 | – | – | – | 49 | 97.7 | 676 | 81.3 | – | VEGFR 2 (KDR) pIC50 (KDR (h)): <6
6 | CNCCn1/c(=N/c2c(F)c(OC)cc(OC)c2F)ccc2ncc(-c3cn[nH]c3)nc21 [Compound 121] | – | 7.38 | 6.88 | – | – | – | 6.08 | – | – | 5.25 | – | – | > 10000 | > 10000 | > 10000 | 2.57 | 1.62 | 2.95 | 1 | 26.9 | –
7 | COc1cc(/N=c2\ccc3ncc(-c4cnn(C)c4)nc3n2CCCN2CCCC2=O)cc(OC)c1 [Compound 133] | – | 7.30 | ~7.58 | – | – | – | 6.73 | – | – | 6.39 | – | – | > 10000 | > 10000 | > 10000 | 1.23 | 1 | 1.58 | 0.724 | 5.89 | –
8 | COc1cc(/N=c2\ccc3ncc(-c4cnn(C)c4)nc3n2CCN2CCCC2=O)cc(OC)c1 [Compound 150] | – | 6.80 | ~7.06 | – | – | – | 6.18 | – | – | 5.34 | – | – | > 10000 | > 10000 | > 10000 | 2.51 | 3.8 | 14.8 | 3.55 | 30.9 | –
9 | COc1cc(/N=c2\ccc3ncc(-c4cnn(C)c4)nc3n2CC2CCC(=O)N2C)c(F)c(OC)c1 (stereo not drawn) [Compound 160] | – | 7.58 | 7.20 | <5 | – | – | 6.99 | – | – | 5.89 | <5 | <5 | – | – | – | 1.82 | 1.17 | ~3.39 | 1.07 | 7.24 | –
10 | COc1cc(OC)c(F)c(N(CC2CCC(=O)N2C)c2ccc3ncc(-c4cnn(C)c4)nc3n2)c1 (stereo not drawn) [Compound 161] | – | 6.26 | 6.08 | <5 | – | – | 5.78 | – | – | <5 | <5 | <5 | – | – | – | 10 | 20 | 37.2 | 6.92 | 126 | –
